Test results taken from patent publication US9199962B2, “Substituted azaheterocycles for the treatment of cancer” (Merck Patent GmbH, priority 2011, dated 2015).
pIC50: −log10 of the molar value. Read-outs that look alike come from different tables or passages of the source.

Biological target: T1, GST-FAK (N-terminal GST fusion with truncated human FAK (376-1052 (end) amino acids)) (Homo sapiens, UniProt Q05397)
T1 construct: truncated human FAK (376-1052 (end) amino acids)
Assay: Biochemical enzyme assay for FAK activity (Caliper LC3000 mobility shift)
Conditions: 100 uM ATP, read-out: FAK IC50
Summary of the method: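 Inhibitor dose series in DMSO were incubated 90 min at 25 °C with truncated GST-tagged human FAK (0.067 ng/µl) and FITC-labelled peptide substrate (1 µM), with ATP at 100 µM and FERM peptide at 1 mM (pH 7.5 HEPES). After EDTA quench, phosphorylated and unphosphorylated peptides were resolved electrophoretically. Percent conversion was fitted for IC50.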

T1 sequence (Q05397 376-1052): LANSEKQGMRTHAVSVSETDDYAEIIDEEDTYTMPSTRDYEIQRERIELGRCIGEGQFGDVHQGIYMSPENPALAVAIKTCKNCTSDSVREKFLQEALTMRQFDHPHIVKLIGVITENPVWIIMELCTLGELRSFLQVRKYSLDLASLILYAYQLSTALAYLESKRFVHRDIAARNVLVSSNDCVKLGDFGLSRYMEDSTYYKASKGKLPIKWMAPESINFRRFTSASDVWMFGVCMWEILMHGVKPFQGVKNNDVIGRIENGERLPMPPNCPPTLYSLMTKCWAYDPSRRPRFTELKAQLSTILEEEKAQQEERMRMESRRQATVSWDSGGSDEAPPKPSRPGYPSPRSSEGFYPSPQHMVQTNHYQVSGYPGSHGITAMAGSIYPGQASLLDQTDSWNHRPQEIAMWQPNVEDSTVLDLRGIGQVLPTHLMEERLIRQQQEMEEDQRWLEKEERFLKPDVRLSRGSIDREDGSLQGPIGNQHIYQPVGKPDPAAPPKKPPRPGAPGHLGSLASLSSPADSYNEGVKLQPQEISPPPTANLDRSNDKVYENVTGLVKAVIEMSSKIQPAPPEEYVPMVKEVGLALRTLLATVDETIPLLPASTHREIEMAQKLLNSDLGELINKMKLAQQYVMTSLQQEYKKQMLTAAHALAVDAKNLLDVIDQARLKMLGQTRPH

Row | pIC50 (Table 5) | Compound | further results
1 | – | Nc1ncccc1-c1nccc(NCc2ccccc2)n1 [Compound 81, 2-(2-Aminopyridin-3-yl)-N-benzylpyrimidin-4-amine] | pIC50 (Table 3): 5.00 to 6.00
2 | – | CC1(C)Cc2cccc(CNc3ccnc(-c4cncc(C(=O)N5CCOCC5)c4)n3)c2O1 [Compound 40, (5-{4-[(2,2-Dimethyl-2,3-dihydro-benzofuran-7-ylmethyl)-amino]-pyrimidin-2-yl}-pyridin-3-yl)-morpholin-4-yl-methanone] | pIC50 (Table 1): < 5.00
3 | > 7.00 | Fc1ccc(CNc2nccc(-c3cncc(C(F)(F)F)c3)n2)c(F)c1 [Compound 248, (2,4-Difluoro-benzyl)-[4-(5-trifluoromethyl-pyridin-3-yl)-pyrimidin-2-yl]-amine] | –
4 | 6.00 to 7.00 | Fc1ccc(CCNc2ccnc(-c3cncc(C(F)(F)F)c3)n2)cc1 [Compound 195, [2-(4-Fluoro-phenyl)-ethyl]-[2-(5-trifluoromethyl-pyridin-3-yl)-pyrimidin-4-yl]-amine] | –
5 | – | O=C(c1cncc(-c2nccc(NCc3ccc(Cl)cc3F)n2)c1)N1CCOCC1 [Compound 22, {5-[4-(4-Chloro-2-fluoro-benzylamino)-pyrimidin-2-yl]-pyridin-3-yl}-morpholin-4-yl-methanone] | pIC50 (Table 1): < 5.00
6 | 5.00 to 6.00 | CNC(=O)c1ccccc1CNc1ccnc(-c2cncc(C(F)(F)F)c2)n1 [Compound 234, N-Methyl-2-{[2-(5-trifluoromethyl-pyridin-3-yl)-pyrimidin-4-ylamino]-methyl}-benzamide] | –
7 | < 5.00 | CS(=O)(=O)Nc1cccc(-c2nc(NCc3ccc(F)cc3F)c3nc[nH]c3n2)c1 [Compound 236, N-{3-[6-(2,4-Difluoro-benzylamino)-9H-purin-2-yl]-phenyl}-methanesulfonamide] | –
8 | – | Nc1ncccc1-c1nccc(NCc2cccc3nsnc23)n1 [Compound 117, 2-(2-Aminopyridin-3-yl)-N-(2,1,3-benzothiadiazol-4-ylmethyl)pyrimidin-4-amine] | pIC50 (Table 3): 6.00 to 7.00
9 | – | Nc1ncccc1-c1nccc(NCc2cccc(F)c2F)n1 [Compound 85, 2-(2-Aminopyridin-3-yl)-N-(2,3-difluorobenzyl)pyrimidin-4-amine] | pIC50 (Table 3): 5.00 to 6.00
10 | > 7.00 | O=C(c1cc(NCc2ccc(F)cc2F)nc(-c2cncc(C(F)(F)F)c2)n1)N1CCOCC1 [Compound 260, [6-(2,4-Difluoro-benzylamino)-2-(5-trifluoromethyl-pyridin-3-yl)-pyrimidin-4-yl]-morpholin-4-yl-methanone] | –
11 | – | Nc1ncccc1-c1nccc(NCc2cccnc2)n1 [Compound 121, 2-(2-Aminopyridin-3-yl)-N-(pyridin-3-ylmethyl)pyrimidin-4-amine] | pIC50 (Table 3): < 5.00
12 | – | FC(F)(F)c1cncc(-c2nccc(NCc3cccc(Oc4cnccn4)c3)n2)c1 [Compound 27, [3-(Pyrazin-2-yloxy)-benzyl]-[2-(5-trifluoromethyl-pyridin-3-yl)-pyrimidin-4-yl]-amine] | pIC50 (Table 1): < 5.00
13 | 6.00 to 7.00 | Fc1cc(Cl)ccc1CNc1nccc(-c2cncc(C(F)(F)F)c2)n1 [Compound 244, (4-Chloro-2-fluoro-benzyl)-[4-(5-trifluoromethyl-pyridin-3-yl)-pyrimidin-2-yl]-amine] | –
14 | – | O=C(NCCn1cccn1)c1cc(NCc2ccc(F)cc2F)nc(-c2cncc(C(F)(F)F)c2)n1 [Compound 71, 6-(2,4-Difluoro-benzylamino)-2-(5-trifluoromethyl-pyridin-3-yl)-pyrimidine-4-carboxylic acid (2-pyrazol-1-yl-ethyl)-amide] | pIC50 (Table 2): > 7.00
15 | 5.00 to 6.00 | COc1cncc(-c2nccc(NCCc3ccc(F)cc3)n2)c1 [Compound 192, [2-(4-Fluoro-phenyl)-ethyl]-[2-(5-methoxy-pyridin-3-yl)-pyrimidin-4-yl]-amine] | –
16 | > 7.00 | COc1cncc(-c2nccc(NCc3ccc(F)cc3C(F)(F)F)n2)c1 [Compound 204, (4-Fluoro-2-trifluoromethyl-benzyl)-[2-(5-methoxy-pyridin-3-yl)-pyrimidin-4-yl]-amine] | –
17 | – | Fc1ccc(Oc2ccc(CNc3ccnc(-c4cncc(F)c4)n3)cc2)cc1 [Compound 7, [4-(4-Fluoro-phenoxy)-benzyl]-[2-(5-fluoro-pyridin-3-yl)-pyrimidin-4-yl]-amine] | pIC50 (Table 1): < 5.00
18 | – | Nc1ncccc1-c1cc(NCc2ccccc2F)ccn1 [Compound 106, N4-(2-Fluorobenzyl)-2,3′-bipyridine-2′,4-diamine] | pIC50 (Table 3): < 5.00
19 | 5.00 to 6.00 | COc1cncc(-c2nccc(NCc3cc[nH]n3)n2)c1 [Compound 218, [2-(5-Methoxy-pyridin-3-yl)-pyrimidin-4-yl]-(1H-pyrazol-3-ylmethyl)-amine] | –
20 | – | Nc1ncccc1-c1nccc(NCc2cccc3ccnn23)n1 [Compound 135, 2-(2-Aminopyridin-3-yl)-N-(pyrazolo[1,5-a]pyridin-7-ylmethyl)pyrimidin-4-amine] | pIC50 (Table 3): < 5.00
21 | 5.00 to 6.00 | Fc1ccc(CNc2cc(-c3cncc(C(F)(F)F)c3)ncn2)c(C(F)(F)F)c1 [Compound 252, (4-Fluoro-2-trifluoromethyl-benzyl)-[6-(5-trifluoromethyl-pyridin-3-yl)-pyrimidin-4-yl]-amine] | –
22 | – | Fc1cncc(-c2nccc(NCc3cccc(Oc4cnccn4)c3)n2)c1 [Compound 9, [2-(5-Fluoro-pyridin-3-yl)-pyrimidin-4-yl]-[3-(pyrazin-2-yloxy)-benzyl]-amine] | pIC50 (Table 1): < 5.00
23 | 6.00 to 7.00 | COc1cncc(-c2nccc(NCc3ccccc3)n2)c1 [Compound 227, Benzyl-[2-(5-methoxy-pyridin-3-yl)-pyrimidin-4-yl]-amine] | –
24 | 5.00 to 6.00 | COc1cc(NC(=O)c2cc(NCc3ccc(F)cc3F)nc(-c3cncc(C(F)(F)F)c3)n2)ccn1 [Compound 232, 6-(2,4-Difluoro-benzylamino)-2-(5-trifluoromethyl-pyridin-3-yl)-pyrimidine-4-carboxylic acid (2-methoxy-pyridin-4-yl)-amide] | –
25 | 6.00 to 7.00 | COc1cncc(-c2nccc(NCc3cc(F)c(F)cc3F)n2)c1 [Compound 224, [2-(5-Methoxy-pyridin-3-yl)-pyrimidin-4-yl]-(2,4,5-trifluoro-benzyl)-amine] | –
26 | – | CC(=O)NCCNC(=O)c1cc(NCc2ccc(F)cc2F)nc(-c2cncc(C(F)(F)F)c2)n1 [Compound 69, 6-(2,4-Difluoro-benzylamino)-2-(5-trifluoromethyl-pyridin-3-yl)-pyrimidine-4-carboxylic acid (2-acetylamino-ethyl)-amide] | pIC50 (Table 2): > 7.00
27 | – | Fc1cncc(-c2nccc(NCc3ccc(Cl)cc3F)n2)c1 [Compound 33, (4-Chloro-2-fluoro-benzyl)-[2-(5-fluoro-pyridin-3-yl)-pyrimidin-4-yl]-amine] | pIC50 (Table 1): > 7.00
28 | – | FC(F)(F)c1cncc(-c2nccc(NCc3ccc(N4CCOCC4)cc3)n2)c1 [Compound 28, (4-Morpholin-4-yl-benzyl)-[2-(5-trifluoromethyl-pyridin-3-yl)-pyrimidin-4-yl]-amine] | pIC50 (Table 1): < 5.00
29 | 5.00 to 6.00 | COc1cncc(-c2nccc(NCc3cccc(C#N)c3)n2)c1 [Compound 225, 3-{[2-(5-Methoxy-pyridin-3-yl)-pyrimidin-4-ylamino]-methyl}-benzonitrile] | –
30 | 6.00 to 7.00 | NC(=O)CNC(=O)c1cc(NCc2ncccc2F)nc(-c2cncc(C(F)(F)F)c2)n1 [Compound 190, 6-[(3-Fluoro-pyridin-2-ylmethyl)-amino]-2-(5-trifluoromethyl-pyridin-3-yl)-pyrimidine-4-carboxylic acid carbamoylmethyl-amide] | –
